# In patent US8987260B2, “Pharmaceutical compounds” (F. Hoffmann-La Roche AG, priority 2006, dated 2015):
# pEC50, pIC50: −log10 of the molar value.
# Experiments:
# CYP450 2C19 = CYP450 2C19 (Homo sapiens, UniProt P33261); assay: Cytochrome P450 inhibition; type: in vitro ADME; settings: top concentration 100 uM
# From the text: (§1) Standard inhibitors (furafylline, sulfaphenazole, tranylcypromine, quinidine, ketoconazole) were used as controls. Plates were read using a BMG LabTechnologies PolarStar in fluorescence mode.
# CYP450 3A4 = CYP450 3A4 (Homo sapiens, UniProt P08684); assay: Cytochrome P450 inhibition; type: in vitro ADME; settings: top concentration 100 uM
# From the text: as §1
# CYP450 1A2 = target: T1, CYP450 1A2 (Homo sapiens, UniProt P05177); assay: Cytochrome P450 inhibition; type: in vitro ADME; settings: top concentration 100 uM
# T1 sequence (P05177 1-516): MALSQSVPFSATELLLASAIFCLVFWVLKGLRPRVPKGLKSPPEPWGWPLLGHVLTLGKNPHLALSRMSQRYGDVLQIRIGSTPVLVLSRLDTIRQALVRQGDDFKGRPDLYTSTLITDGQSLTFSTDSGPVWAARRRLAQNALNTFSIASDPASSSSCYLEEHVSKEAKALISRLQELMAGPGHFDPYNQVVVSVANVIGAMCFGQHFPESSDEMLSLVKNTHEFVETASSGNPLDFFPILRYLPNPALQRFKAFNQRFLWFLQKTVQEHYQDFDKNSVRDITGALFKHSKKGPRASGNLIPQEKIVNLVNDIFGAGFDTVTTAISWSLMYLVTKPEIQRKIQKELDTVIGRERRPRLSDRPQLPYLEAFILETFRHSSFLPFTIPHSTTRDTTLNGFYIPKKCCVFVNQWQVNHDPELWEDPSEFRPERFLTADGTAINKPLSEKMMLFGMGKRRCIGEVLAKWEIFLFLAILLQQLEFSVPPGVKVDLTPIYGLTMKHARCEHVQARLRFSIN
# From the text: as §1
# CYP450 2D6 = CYP450 2D6 (Homo sapiens, UniProt P10635); assay: Cytochrome P450 inhibition; type: in vitro ADME; settings: top concentration 100 uM
# From the text: as §1
# CYP450 2C9 = CYP450 2C9 (Homo sapiens, UniProt P11712); assay: Cytochrome P450 inhibition; type: in vitro ADME; settings: top concentration 100 uM
# From the text: as §1
# range of cell lines = assay: Cellular proliferation inhibition (Alamar Blue); type: cell-based; settings: 96 h; 4 days incubation, range of cell lines utilized
# Description: Cells were seeded at optimal density in a 96 well plate and incubated for 4 days in the presence of test compound. Alamar Blue™ was subsequently added to the assay medium, and cells were incubated for 6 h before reading at 544 nm excitation, 590 nm emission. EC50 values were calculated using a sigmoidal dose response curve fit.
# [1] = Plasma protein binding (equilibrium dialysis); type: in vitro ADME; settings: 10% plasma (v/v in buffer), 37° C., read-out: fraction unbound (Fu)
# Description: Solutions of test compound (5 um, 0.5% final DMSO concentration) were prepared in buffer and 10% plasma (v/v in buffer). A 96 well HT dialysis plate was assembled so that each well was divided in two by a semi-permeable cellulose membrane. The buffer solution was added to one side of the membrane and the plasma solution to the other side; incubations were then conducted at 37° C. over 2 h in triplicate. The cells were subsequently emptied, and the solutions for each batch of compounds were combined into two groups (plasma-free and plasma-containing) then analysed by LC-MSMS using two sets of calibration standards for plasma-free (6 points) and plasma-containing solutions (7 points).
# [2] = Aqueous solubility at physiological pH; type: physicochemical; settings: aqueous medium at physiological pH, pH 7.4, aqueous buffer
# PI3K = system: T2, PI3K; type: biochemical; settings: purified recombinant enzyme, ATP 1 uM, 1 h room temperature; read-out: IC50 against PI3K
# T2 construct: other: purified recombinant enzyme, ATP 1 uM, 1 h room temperature
# Description: The compound was serially diluted in 100% DMSO. The kinase reaction was incubated for 1 h at room temperature, and the reaction was terminated by the addition of PBS. IC50 values were subsequently determined using sigmoidal dose-response curve fit (variable slope).
# in vitro = settings: human, Caco-2
# CYP450 2C19, sequence (P33261 whole entry): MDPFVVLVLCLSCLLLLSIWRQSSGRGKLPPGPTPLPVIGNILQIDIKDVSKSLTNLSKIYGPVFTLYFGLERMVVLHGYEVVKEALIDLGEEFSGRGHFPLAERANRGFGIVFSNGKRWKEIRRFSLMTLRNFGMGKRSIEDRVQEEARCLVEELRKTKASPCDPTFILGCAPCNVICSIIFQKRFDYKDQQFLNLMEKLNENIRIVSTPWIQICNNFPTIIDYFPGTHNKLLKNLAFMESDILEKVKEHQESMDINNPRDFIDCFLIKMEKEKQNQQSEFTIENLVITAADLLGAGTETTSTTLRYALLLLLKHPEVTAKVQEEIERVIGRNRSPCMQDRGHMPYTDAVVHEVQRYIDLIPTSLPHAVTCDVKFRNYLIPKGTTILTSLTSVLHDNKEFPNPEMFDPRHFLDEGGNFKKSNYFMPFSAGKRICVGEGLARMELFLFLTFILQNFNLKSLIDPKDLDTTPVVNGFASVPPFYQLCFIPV
# CYP450 3A4, sequence (P08684 whole entry): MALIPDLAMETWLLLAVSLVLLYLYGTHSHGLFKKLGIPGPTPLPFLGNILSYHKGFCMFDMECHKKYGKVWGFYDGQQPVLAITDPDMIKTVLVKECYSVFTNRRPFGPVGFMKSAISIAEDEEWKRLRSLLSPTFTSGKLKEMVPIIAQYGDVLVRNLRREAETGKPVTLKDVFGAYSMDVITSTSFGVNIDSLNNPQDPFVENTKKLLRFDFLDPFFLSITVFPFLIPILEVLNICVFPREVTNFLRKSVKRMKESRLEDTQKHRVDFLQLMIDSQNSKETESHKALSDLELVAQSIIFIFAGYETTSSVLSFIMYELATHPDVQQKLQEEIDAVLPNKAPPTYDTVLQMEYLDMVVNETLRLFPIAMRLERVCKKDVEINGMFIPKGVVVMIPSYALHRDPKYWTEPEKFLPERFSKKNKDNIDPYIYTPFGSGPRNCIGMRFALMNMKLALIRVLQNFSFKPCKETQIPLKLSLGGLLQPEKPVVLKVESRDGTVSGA
# CYP450 2C9, sequence (P11712 whole entry): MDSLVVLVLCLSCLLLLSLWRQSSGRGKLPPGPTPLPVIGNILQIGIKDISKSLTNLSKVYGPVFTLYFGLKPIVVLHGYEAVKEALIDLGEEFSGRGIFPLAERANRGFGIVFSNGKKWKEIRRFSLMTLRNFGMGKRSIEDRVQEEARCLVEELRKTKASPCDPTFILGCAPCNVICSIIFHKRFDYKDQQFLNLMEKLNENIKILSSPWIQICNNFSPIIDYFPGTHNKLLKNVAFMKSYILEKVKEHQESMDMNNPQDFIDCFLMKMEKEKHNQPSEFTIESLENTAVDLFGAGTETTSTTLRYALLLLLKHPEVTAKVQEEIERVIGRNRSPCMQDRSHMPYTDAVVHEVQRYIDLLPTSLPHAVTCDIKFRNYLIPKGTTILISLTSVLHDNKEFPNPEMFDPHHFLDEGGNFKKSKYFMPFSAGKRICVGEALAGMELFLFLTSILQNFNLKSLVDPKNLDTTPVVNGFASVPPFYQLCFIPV
# CYP450 2D6, sequence (P10635 whole entry): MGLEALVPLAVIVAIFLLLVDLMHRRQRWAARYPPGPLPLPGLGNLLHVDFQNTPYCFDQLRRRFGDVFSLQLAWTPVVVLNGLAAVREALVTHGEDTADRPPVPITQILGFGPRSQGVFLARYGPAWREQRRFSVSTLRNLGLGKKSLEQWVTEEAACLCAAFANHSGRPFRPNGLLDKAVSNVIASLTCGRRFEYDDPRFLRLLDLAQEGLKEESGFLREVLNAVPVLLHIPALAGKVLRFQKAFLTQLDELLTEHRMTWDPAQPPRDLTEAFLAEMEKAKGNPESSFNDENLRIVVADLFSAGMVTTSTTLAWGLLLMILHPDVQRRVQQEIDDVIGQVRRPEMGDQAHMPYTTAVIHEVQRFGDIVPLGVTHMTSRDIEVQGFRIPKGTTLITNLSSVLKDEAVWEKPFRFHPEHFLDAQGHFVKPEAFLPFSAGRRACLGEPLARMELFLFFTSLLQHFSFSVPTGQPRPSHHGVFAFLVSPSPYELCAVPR
compound,measurement,setting,value
"CS(=O)(=O)N1CCN(Cc2cc3nc(-c4cccc5[nH]ncc45)nc(N4CCOCC4)c3s2)CC1 [compound of the invention, 2-(1H-Indazol-4-yl)-6-(4-methanesulfonyl-piperazin-1-ylmethyl)-4-morpholin-4-yl-thieno[3,2-d]pyrimidine]",pIC50,CYP450 2C19,≤ 5.30
same,pIC50,CYP450 3A4,≤ 5.30
same,pIC50,CYP450 1A2,≤ 5.30
same,pIC50,CYP450 2D6,≤ 5.30
same,pIC50,CYP450 2C9,≤ 5.30
same,pEC50,range of cell lines,≥ 4.30
same,"fraction unbound at 2 h, 5 um",[1],≥ 0.1
same,solubility,[2],> 100 µM
same,Papp,in vitro,≥ 1 ×10⁻⁶ cm/s
